Several values for one entry are separate records, joined by “and”; a condition that tells them apart may be missing. Identical values can stand only once.
Experiments:
MAK = target: T1, MAK (Homo sapiens, UniProt P20794); conditions: 1 μM; Run 1, Run 2
T1 sequence (P20794 1-623): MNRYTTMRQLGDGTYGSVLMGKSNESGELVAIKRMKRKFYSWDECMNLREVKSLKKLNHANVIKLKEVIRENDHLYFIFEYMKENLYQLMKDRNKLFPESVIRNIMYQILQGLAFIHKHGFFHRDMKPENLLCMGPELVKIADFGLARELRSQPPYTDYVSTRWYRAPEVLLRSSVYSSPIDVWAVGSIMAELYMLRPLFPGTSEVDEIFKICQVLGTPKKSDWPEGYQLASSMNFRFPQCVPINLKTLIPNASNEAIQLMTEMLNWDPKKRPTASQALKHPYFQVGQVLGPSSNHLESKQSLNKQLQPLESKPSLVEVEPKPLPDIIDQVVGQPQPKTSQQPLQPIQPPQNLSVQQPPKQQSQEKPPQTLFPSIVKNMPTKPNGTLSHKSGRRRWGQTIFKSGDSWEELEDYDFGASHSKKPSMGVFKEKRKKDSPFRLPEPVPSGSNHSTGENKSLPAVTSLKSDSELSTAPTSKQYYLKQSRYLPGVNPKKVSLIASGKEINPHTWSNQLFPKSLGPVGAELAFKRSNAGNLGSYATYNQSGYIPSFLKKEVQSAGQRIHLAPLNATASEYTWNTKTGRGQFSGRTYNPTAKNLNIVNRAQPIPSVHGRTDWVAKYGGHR

ARAF = target: T2, ARAF (Homo sapiens, UniProt P10398); test: biochemical; conditions: read-out: % enzyme activity, 1 μM; Run 1, Run 2
T2 sequence (P10398 1-606): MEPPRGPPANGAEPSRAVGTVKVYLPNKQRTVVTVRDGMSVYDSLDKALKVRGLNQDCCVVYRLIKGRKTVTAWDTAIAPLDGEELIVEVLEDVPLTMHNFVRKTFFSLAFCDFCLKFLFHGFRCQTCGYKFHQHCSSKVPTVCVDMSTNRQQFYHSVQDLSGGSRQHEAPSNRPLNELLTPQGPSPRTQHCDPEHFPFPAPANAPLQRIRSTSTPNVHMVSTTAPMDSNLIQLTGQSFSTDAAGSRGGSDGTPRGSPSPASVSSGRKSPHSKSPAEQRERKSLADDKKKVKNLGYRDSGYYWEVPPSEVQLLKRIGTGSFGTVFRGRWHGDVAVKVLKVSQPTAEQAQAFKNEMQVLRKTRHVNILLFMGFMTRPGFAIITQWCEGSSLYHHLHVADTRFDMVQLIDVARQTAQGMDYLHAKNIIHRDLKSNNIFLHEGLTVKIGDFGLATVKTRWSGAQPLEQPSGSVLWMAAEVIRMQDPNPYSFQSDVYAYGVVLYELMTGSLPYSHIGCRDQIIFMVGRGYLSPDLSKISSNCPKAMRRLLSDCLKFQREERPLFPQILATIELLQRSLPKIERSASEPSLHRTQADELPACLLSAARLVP

MLK2/MAP3K10 = MLK2/MAP3K10 (Homo sapiens, UniProt Q02779); conditions: 1 μM; Run 1, Run 2
PKCtheta = PKCtheta (Homo sapiens, UniProt Q04759); conditions: 1 μM; Run 1, Run 2
STK16 = STK16 (Homo sapiens, UniProt O75716); conditions: 1 μM; Run 1, Run 2
c-MET = c-MET (Homo sapiens, UniProt P08581); test: biochemical; conditions: read-out: % enzyme activity, 1 μM; Run 1, Run 2
DMPK = target: T3, DMPK (Homo sapiens, UniProt Q09013); conditions: 1 μM; Run 1, Run 2
T3 sequence (Q09013 1-629): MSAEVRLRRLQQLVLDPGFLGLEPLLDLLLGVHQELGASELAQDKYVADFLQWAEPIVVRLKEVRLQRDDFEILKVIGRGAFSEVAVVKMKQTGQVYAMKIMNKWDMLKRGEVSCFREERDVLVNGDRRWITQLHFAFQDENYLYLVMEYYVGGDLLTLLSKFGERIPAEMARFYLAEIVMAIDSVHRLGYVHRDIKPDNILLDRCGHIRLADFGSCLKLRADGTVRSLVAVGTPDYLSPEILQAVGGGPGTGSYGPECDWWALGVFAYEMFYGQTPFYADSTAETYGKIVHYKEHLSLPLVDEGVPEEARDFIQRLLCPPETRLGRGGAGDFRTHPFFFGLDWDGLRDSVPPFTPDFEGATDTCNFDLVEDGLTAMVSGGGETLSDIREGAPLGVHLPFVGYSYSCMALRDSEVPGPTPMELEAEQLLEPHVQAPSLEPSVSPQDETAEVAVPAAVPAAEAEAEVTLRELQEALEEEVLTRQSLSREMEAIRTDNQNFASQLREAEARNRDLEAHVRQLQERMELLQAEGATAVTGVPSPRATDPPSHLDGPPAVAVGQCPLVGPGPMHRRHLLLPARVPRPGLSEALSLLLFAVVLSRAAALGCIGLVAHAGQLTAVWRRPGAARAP

TESK2 = TESK2 (Homo sapiens, UniProt Q96S53); conditions: 1 μM; Run 1, Run 2
FGFR2 = FGFR2 (Homo sapiens, UniProt P21802); conditions: 1 μM; Run 1, Run 2
Chain of FGFR2 (P21802 22-821): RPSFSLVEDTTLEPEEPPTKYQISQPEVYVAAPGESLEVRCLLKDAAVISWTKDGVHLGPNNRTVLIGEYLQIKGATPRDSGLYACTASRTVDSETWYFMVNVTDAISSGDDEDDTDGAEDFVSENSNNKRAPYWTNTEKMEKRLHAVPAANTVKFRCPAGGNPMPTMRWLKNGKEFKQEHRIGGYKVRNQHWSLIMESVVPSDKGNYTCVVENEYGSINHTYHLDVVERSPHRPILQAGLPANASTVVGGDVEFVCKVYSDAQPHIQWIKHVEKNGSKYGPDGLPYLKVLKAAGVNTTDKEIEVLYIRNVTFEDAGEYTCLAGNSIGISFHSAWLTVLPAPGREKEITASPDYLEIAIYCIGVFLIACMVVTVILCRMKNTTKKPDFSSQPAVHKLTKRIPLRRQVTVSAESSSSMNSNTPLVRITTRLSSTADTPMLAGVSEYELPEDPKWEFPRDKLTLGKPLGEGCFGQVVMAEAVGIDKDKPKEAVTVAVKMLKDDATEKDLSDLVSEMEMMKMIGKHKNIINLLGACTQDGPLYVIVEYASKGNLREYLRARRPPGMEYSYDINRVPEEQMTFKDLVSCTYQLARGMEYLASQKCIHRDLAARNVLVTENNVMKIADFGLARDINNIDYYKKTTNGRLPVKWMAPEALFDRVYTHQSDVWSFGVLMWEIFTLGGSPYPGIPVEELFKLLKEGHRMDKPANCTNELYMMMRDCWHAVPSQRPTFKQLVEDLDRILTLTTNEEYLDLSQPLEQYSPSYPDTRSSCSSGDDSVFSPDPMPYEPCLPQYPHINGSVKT

Chain of TESK2 (Q96S53 whole entry): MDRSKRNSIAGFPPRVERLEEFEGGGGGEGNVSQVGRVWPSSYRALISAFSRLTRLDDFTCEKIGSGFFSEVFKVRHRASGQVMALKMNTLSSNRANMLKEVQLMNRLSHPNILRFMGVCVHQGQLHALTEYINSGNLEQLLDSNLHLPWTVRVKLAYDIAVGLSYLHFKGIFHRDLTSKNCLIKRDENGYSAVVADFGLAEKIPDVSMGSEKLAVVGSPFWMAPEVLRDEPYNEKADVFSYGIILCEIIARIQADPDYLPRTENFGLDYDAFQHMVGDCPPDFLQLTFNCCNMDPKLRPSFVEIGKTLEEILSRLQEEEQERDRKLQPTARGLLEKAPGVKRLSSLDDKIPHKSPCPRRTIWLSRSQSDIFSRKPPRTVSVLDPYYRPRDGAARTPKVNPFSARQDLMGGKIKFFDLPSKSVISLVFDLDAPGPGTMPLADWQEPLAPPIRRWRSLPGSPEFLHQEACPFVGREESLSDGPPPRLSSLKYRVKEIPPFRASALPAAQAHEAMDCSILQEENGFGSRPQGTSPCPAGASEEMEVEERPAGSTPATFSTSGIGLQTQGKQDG
Chain of PKCtheta (Q04759 whole entry): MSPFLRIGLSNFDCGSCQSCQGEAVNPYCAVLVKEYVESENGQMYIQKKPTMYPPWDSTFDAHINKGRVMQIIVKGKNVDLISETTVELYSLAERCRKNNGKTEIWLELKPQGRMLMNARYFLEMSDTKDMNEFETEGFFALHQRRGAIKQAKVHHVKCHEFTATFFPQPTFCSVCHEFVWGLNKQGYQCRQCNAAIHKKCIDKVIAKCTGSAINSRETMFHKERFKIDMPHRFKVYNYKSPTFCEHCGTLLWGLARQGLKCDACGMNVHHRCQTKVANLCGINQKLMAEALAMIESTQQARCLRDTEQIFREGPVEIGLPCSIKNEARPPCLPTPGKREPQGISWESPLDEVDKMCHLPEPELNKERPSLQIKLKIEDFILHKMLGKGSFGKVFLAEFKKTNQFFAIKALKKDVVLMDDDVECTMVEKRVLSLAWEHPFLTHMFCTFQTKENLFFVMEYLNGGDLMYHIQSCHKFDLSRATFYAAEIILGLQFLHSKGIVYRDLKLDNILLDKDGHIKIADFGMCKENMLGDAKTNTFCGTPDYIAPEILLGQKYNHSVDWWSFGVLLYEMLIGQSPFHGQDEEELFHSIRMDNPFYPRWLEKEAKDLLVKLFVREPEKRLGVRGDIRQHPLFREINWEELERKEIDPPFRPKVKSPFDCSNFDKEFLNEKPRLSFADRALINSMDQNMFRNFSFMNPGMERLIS
Chain of STK16 (O75716 whole entry): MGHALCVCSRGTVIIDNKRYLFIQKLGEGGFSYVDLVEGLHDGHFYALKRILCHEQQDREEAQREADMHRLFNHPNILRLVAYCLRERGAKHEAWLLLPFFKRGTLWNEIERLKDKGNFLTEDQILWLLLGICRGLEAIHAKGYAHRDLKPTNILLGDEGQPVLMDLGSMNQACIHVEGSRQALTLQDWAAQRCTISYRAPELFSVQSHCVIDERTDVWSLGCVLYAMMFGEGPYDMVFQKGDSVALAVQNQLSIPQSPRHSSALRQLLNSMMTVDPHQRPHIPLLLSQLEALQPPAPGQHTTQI
Chain of c-MET (P08581 25-1390): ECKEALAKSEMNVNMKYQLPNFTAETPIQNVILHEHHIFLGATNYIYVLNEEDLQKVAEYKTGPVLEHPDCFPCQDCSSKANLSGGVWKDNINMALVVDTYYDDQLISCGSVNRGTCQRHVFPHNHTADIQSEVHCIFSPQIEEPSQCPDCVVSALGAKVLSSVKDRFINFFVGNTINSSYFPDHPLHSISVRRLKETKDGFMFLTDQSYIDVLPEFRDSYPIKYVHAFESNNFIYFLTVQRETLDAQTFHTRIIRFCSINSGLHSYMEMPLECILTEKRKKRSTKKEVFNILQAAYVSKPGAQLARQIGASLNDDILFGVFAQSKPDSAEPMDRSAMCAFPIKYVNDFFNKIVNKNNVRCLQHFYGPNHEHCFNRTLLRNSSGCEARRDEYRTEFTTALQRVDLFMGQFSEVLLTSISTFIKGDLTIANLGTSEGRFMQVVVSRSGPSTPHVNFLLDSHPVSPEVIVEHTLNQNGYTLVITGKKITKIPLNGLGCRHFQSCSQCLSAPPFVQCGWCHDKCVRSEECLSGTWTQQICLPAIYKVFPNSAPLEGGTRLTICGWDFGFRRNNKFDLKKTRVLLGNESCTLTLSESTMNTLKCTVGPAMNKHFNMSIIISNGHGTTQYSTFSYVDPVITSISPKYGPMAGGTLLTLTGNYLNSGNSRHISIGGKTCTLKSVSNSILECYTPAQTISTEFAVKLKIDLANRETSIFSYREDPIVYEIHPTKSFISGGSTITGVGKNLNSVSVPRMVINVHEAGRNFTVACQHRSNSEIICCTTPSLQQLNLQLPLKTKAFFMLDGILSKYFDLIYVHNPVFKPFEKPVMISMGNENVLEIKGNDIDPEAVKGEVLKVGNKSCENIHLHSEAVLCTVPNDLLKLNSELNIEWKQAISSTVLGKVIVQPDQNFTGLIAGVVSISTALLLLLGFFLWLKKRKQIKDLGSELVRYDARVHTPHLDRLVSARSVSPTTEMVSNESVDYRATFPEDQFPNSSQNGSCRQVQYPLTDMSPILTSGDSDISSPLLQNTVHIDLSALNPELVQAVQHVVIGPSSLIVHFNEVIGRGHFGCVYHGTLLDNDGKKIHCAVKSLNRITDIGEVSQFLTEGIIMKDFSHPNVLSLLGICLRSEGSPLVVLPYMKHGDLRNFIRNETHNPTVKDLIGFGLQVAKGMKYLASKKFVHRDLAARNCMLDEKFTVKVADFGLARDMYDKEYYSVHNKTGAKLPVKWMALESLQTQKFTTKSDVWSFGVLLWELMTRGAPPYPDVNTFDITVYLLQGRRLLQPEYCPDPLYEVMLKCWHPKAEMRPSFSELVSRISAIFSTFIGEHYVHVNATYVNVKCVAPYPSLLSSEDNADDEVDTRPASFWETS
Chain of MLK2/MAP3K10 (Q02779 whole entry): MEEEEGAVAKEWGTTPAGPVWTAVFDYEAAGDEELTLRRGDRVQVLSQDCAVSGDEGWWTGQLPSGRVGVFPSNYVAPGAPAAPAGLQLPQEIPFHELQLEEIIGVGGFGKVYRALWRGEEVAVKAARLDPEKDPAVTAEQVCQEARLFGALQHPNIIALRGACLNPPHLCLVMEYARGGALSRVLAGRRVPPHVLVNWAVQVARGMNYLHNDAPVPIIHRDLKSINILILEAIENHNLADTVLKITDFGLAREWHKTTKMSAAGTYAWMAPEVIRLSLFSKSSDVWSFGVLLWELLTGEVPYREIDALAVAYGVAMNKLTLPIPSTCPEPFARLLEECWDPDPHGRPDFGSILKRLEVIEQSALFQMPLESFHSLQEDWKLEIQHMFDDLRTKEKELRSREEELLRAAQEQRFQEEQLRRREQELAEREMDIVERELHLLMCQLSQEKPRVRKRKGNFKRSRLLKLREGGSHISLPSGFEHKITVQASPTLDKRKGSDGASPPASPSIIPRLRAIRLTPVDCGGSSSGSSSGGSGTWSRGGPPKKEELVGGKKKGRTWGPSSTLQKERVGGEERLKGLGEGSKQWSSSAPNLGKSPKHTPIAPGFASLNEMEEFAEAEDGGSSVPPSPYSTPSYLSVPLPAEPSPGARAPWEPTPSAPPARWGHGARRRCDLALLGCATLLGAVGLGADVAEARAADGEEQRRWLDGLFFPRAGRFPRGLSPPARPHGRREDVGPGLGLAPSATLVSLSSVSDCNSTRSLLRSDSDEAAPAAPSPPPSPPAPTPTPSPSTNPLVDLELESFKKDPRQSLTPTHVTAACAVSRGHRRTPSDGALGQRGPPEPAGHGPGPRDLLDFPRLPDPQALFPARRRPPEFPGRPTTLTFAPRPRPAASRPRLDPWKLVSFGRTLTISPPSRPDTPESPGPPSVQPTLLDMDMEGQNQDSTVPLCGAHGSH

COc1cc(-c2cncc(-c3ccc(N4CCN(C)CC4)cc3)c2C)cc(F)c1C(N)=O [Compound 26a, 2-Fluoro-6-methoxy-4-(4-methyl-5-(4-(4-methylpiperazin-1-yl)phenyl)pyridin-3-yl)benzamide]
% enzyme activity (MAK): 98.28% | remaining activity at 1 µM (ARAF): 29.3% | % enzyme activity (MLK2/MAP3K10): 86.29% | % enzyme activity (PKCtheta): 81.31% | % enzyme activity (STK16): 103.69% | remaining activity at 1 µM (c-MET): 100% | % enzyme activity (DMPK): 108.75% | % enzyme activity at 1 μM (KHS/MAP4K5): 39.7% and 39.3% | % enzyme activity (TESK2): 93.89% | % enzyme activity (FGFR2): 95.46%

COc1cc(-c2cncc(-c3ccc(N4C[C@@H](C)N(C)[C@@H](C)C4)cc3)c2C)cc(F)c1C(N)=O [Compound 26c, 2-Fluoro-6-methoxy-4-(4-methyl-5-(4-((3R,5S)-3,4,5-trimethylpiperazin-1-yl)phenyl)pyridin-3-yl)benzamide]
% enzyme activity (MAK): 100.81% | remaining activity at 1 µM (ARAF): 48.1% | % enzyme activity (MLK2/MAP3K10): 96.07% | % enzyme activity (PKCtheta): 84.96% | % enzyme activity (STK16): 99.45% | remaining activity at 1 µM (c-MET): 107% | % enzyme activity (DMPK): 99.12% | % enzyme activity at 1 μM (KHS/MAP4K5): 41.7% and 40.6% | % enzyme activity (TESK2): 92.03% | % enzyme activity (FGFR2): 90.89%

Source: PMC8213057, “Targeting ALK2: An Open Science Approach to Developing Therapeutics for the Treatment of Diffuse Intrinsic Pontine Glioma” (Journal of Medicinal Chemistry, 2020)
